Test results: patent US10231939B2, “Hydroxytyrosol and oleuropein compositions for induction of DNA damage, cell death and LSD1 inhibition” (priority 2012, dated 2019)
Several values for one entry are separate records, joined by “and”; a condition that tells them apart may be missing. Identical values can stand only once.

Legend:
human keratinocytes = test: mRNA-Sequencing, human keratinocytes; type: cell-based
Description: Human chronic myelogenous leukemia K562 cells (ATCC No. CCL-243) were obtained from the American Type Culture Collection (Manassas, Va., USA) and maintained in complete-[…] Park Memorial Institute (RPMI) 1640 medium supplemented with 20 mmol/L HEPES (pH 7.4; GIBCO-Invitrogen, Carlsbad, Calif., USA), 10% (v/v) fetal bovine serum (FBS), 2 mmol/L L-glutamine (GIBCO-Invitrogen), and 80 units gentamicin (GIBCO-Invitrogen). Cells were cultured in suspension in a humidified atmosphere of 5% (v/v) CO2 at 37° C. and were maintained in exponential growth phase. For maintenance, cells were passaged twice per week and seeded at ratios 1:10. Human neonatal foreskin keratinocytes transfected with the human papilloma virus (HPV) were grown as monolayers in keratinocyte—Serum Free Medium (SFM) medium (GIBCO-Invitrogen) supplemented with L-glutamine, human epidermal growth factor (EGF), and bovine pituitary extract (BPE) at 37° C., 5% (v/v) CO2. Cells were passaged by trypsinisation and seeded at ratio of 1:3. Cells were seeded at densities of 1×10^6/mL in culture flasks (Nalge Nunc, New York, USA) and treated with hydroxytyrosol (0, 20, 100 μM), for 24 hours at 37° C., 5% (v/v) CO2. mRNA sequencing was performed by TRIZOL extraction and library preparation using Illumina kits according to manufacturer's protocols. Next generation sequencing (NGS) was performed at a depth of approximately 20 million mapped reads per sample to determine the effect of hydroxytyrosol on genome-wide gene expression, in human erythroleukemic K562 cells and human keratinocytes (24 hr treatment, 20 and 100 μM). Reads generated by the Illumina base calling software V1.6 were aligned with Burrows Wheeler Aligner to the human transcriptome database curated by RefSeq (Hg18 build). Raw counts were normalized to adjust for slightly differing data volume across lanes giving the widely used score reads per transcript per million reads. These scores were used to determine relative fold changes and the conventionally used ±1.5 fold-change, which is discernible with qRT-PCR, was defined a significant change in expression. The online program MetaCore (GeneGo Inc. St. Joseph, MI, USA) was used for pathway analysis.

K562 cells = test: γH2AX immunofluorescence, K562; type: cell-based, human
Description: Cells were seeded at densities of 1×10^6/mL in 24 well culture (Nalge Nunc, New York, USA) and treated with hydroxytyrosol (0, 20, 100 μM), for 24 hours at 37° C., 5% (v/v) CO2. Cells were then stained and quantified for the number of γH2AX foci per cell nuclei. Briefly, using cytofunnels and filter cards, aliquots of […] were cytospun (Shandon, Inc.) for 5 minutes at 500 rpm onto Poly-o-lysine slides (Menzel-Glaser, Germany). All cells were then fixed for 10 minutes with 4% paraformaldehyde (Sigma-Aldrich, USA), washed once for five minutes with PBS without calcium and magnesium and permeabilized using 0.1% Triton X-100(Sigma-Aldrich, USA) for 10 minutes at room temperature. […]
Images were acquired using a Zeiss LSM 510 Meta laser confocal microscope fitted with a Z-stage motor and 63× oil plan apochromat objective with a refractive index of 1.40. […] Images required for γH2AX quantification were acquired in 512×512 pixel format and loaded into Image J (Fiji version 1.44a). […]
Image J software was used for the quantification of foci in all experiments. […] Now clearly defined nuclear regions were selected, numbers of foci were quantified by using the find maxima tool. […] Foci were now quantified as a total number for all cells selected. The average number of foci per nucleus was calculated and recorded into Excel spread sheets (Microsoft, Redmond, Wash., USA). […]

[1] = hydroxytyrosol 24 hr (20 μM per FIG. 18C)

OCCc1ccc(O)c(O)c1 [HT, 4-(2-hydroxyethyl)-1,2-benzenediol]
heme oxygenase 1 (HMOX-1) up-regulated (human keratinocytes; hydroxytyrosol): 15 fold
number of genes whose expression is regulated (human keratinocytes; hydroxytyrosol): ~3 thousand genes
ELP3 expression Fold Change (UP) (human keratinocytes; [1]): 1.51 fold
HDAC5 expression Fold Change (UP) (human keratinocytes; [1]): 1.81 fold and 1.70 fold
HDAC9 expression Fold Change (UP) (human keratinocytes; [1]): 3.00 fold
HDAC11 expression Fold Change (UP) (human keratinocytes; [1]): 1.65 fold and 1.54 fold
JHDM1D expression Fold Change (UP) (human keratinocytes; [1]): 1.66 fold
KDM2B expression Fold Change (UP) (human keratinocytes; [1]): 1.64 fold and 1.55 fold
KDM3A expression Fold Change (UP) (human keratinocytes; [1]): 1.60 fold
KDM5D expression Fold Change (DOWN) (human keratinocytes; [1]): 2.00 fold
MLL3 expression Fold Change (DOWN) (human keratinocytes; [1]): 2.00 fold
NCOA1 expression Fold Change (UP) (human keratinocytes; [1]): 1.51 fold
PRDM1 expression Fold Change (UP) (human keratinocytes; [1]): 2.67 fold and 4.00 fold
PRDM4 expression Fold Change (UP) (human keratinocytes; [1]): 1.56 fold
PRDM8 expression Fold Change (UP) (human keratinocytes; [1]): 1.85 fold and 1.64 fold
PRDM11 expression Fold Change (UP) (human keratinocytes; [1]): 3.00 fold
PRDM12 expression Fold Change (DOWN) (human keratinocytes; [1]): 1.50 fold
PRMT8 expression Fold Change (DOWN) (human keratinocytes; [1]): 2.00 fold
SETBP1 expression Fold Change (DOWN) (human keratinocytes; [1]): 2.00 fold
SETDB2 expression Fold Change (UP) (human keratinocytes; [1]): 1.75 fold
SETMAR expression Fold Change (UP) (human keratinocytes; [1]): 1.53 fold
SMYD3 expression Fold Change (DOWN) (human keratinocytes; [1]): 1.55 fold
DNA double-strand breaks (γH2AX accumulation) (K562 cells; K562, 0, 20, 100 μM, 24 hours): induces significant DNA-double strand breaks
effect on DNA damage by anti-cancer modalities (doxorubicin, vinblastine, mitomycin C, UVA, γ-radiation) (K562 cells; K562, 100 μM hydroxytyrosol pre-treatment 24 hours): enhances the DNA damaging effects
